Series [1] concerns HepG2 cells. To be noted: for IC50 in HepG2 cells: 11 concentrations, 1:3 dilution, Inactive = no significant activity at 46 µM.
From the text: (§1) Growth medium was made with Dulbecco's Modified Eagle Medium with 10% fetal bovine serum (FBS).
In series [2] the test system is P. falciparum Dd2 gametocytes. Description: alamarBlue gametocyte viability assay, strain Dd2. Format: cell-based, Plasmodium falciparum. On the technique in general: Resazurin is reduced to fluorescent resorufin, in cell work by metabolically active cells.
Method: Briefly, gametocyte cultures were set up at 0.1% parasitemia and on days 9–10 treated with 50 mM N-acetylglucosamine (NAG) to block further asexual growth. Stage III–V gametocytes were isolated by Percoll density gradient centrifugation on day 12 and returned to culture for 24 hrs before being used in the assay[9].
Briefly, 2.5 μl/well incomplete medium was dispensed into each well of 1,536-well plates using the Multidrop Combi followed by 23 nl compound transferring using the NX-TR Pintool (WAKO Scientific Solutions, San Diego, CA). Then, 2.5 μl/well of gametocytes was dispensed with a seeding density of 20,000 cells/well using the Multidrop Combi. The assay plates were incubated for 72 hrs at 37°C with 5% CO2.
Series [3] has as its system HepG2 cells. Description: cells. To be noted: Homo sapiens; for Emax: HepG2, read-out: % Max response.
From the text: as §1
Series [4] relates to P. falciparum 3D7 gametocytes. Description: alamarBlue gametocyte viability assay, strain 3D7. It is filed as cell-based, Plasmodium falciparum.
Method: Asexual parasites of P. falciparum strain 3D7 were cultured as described previously[55]. Briefly, gametocyte cultures were set up at 0.1% parasitemia and on days 9–10 treated with 50 mM N-acetylglucosamine (NAG) to block further asexual growth. Stage III–V gametocytes were isolated by Percoll density gradient centrifugation on day 12 and returned to culture for 24 hrs before being used in the assay[9]. […] Growth medium was made with Dulbecco's Modified Eagle Medium with 10% fetal bovine serum (FBS).
Compound screening experiments were performed as previously described[11]. Briefly, 2.5 μl/well incomplete medium was dispensed into each well of 1,536-well plates using the Multidrop Combi followed by 23 nl compound transferring using the NX-TR Pintool (WAKO Scientific Solutions, San Diego, CA). Then, 2.5 μl/well of gametocytes was dispensed with a seeding density of 20,000 cells/well using the Multidrop Combi. The assay plates were incubated for 72 hrs at 37°C with 5% CO2.
The primary screen data was analyzed using customized software developed internally[58]. IC50 values were calculated using the Prism software (Graphpad Software, Inc. San Diego, CA). Data were presented as means ± SEM with n = 3 independent experiments.
Series [5] deals with P. falciparum HB3 gametocytes. Briefly: alamarBlue gametocyte viability assay, strain HB3. It is filed as cell-based, Plasmodium falciparum.
Series [6] relates to P. falciparum asexual blood stage parasites. Briefly: asexual parasite SYBR green assay. To be noted: for pIC50: Plasmodium falciparum, SYBR green assay, read-out: IC50 against asexual parasites. Format: cell-based, Plasmodium falciparum.
The next series concerns mTOR. Also on record: method as in PMID 21322566. To be noted: cited from earlier work.
The subject of the next series is Plasmodium berghei ANKA. Description: mouse-mosquito transmission model, oocysts per mosquito midgut. It is filed as in vivo, Plasmodium berghei in mice / Anopheles stephensi.
Series [7] has as its system P. falciparum asexual blood stage. Also noted: method as in PMID 6285190. To be noted: cited from earlier work.
Series [8] concerns early stages (I and II) of P. falciparum gametocytes. Also on record: method as in PMID 6285190. To be noted: cited from earlier work.
Details of series [9]: method as in PMID 21322566. To be noted: cited from earlier work.
In series [10] the test system is P. falciparum liver stage. Also on record: method as in PMID 6285190. To be noted: read-out: IC50, P. falciparum development in the liver stage; cited from earlier work.
A further series relates to Dd2 asexual parasites. Also noted: method as in PMID 17116676. To be noted: cited from earlier work.
[11] abbreviates: Plasmodium falciparum, DD2, read-out: Dd2-gametocytes IC50.
Setting [12] is: Plasmodium falciparum, HB3, read-out: HB3-gametocytes IC50.
Setting [13] is: Plasmodium falciparum, 3D7, P. falciparum 3D7 gametocytes, mean of at least 3 independent experiments, read-out: Gametocyte IC50.
[14] abbreviates: Plasmodium falciparum, HB3, strain profiling, 11 concentrations, 1:3 dilution, three times, read-out: HB3-gametocytes IC50.
Where [15] appears, read: Plasmodium falciparum, DD2, strain profiling, 11 concentrations, 1:3 dilution, three times, read-out: Dd2-gametocytes IC50.

pIC50: −log10 of the molar value. Entries after “also recorded” stand apart in the source; their conditions may differ. Like-named read-outs stand apart in the source and are kept apart here. Starred links: 1 amine or outer side, 2 acyl side, 3 side chain; linkers in the order of their positions; H or OH if unused. Positions of bridges follow the written chain, without caps; N, C: chain ends. Non-standard residues stand in square brackets, D forms with d. Residues, ends and D or L forms follow the SMILES beside them. Chains are numbered I, II in the order given. Actinocin(9to1) = Cc1c2oc3c(C)ccc(C(=O)[*:1])c3nc-2c(C(=O)[*:2])c(N)c1=O; NMeV = CN[C@H](C(=O)O)C(C)C; Sar = CNCC(=O)O

Method for Plasmodium berghei ANKA: Some mice were given two doses of drug three hrs apart to increase exposure time, but on a short enough time scale to prevent a concomitant decrease in asexual parasite from affecting the next cycle of gametocytes. […] The mosquito feed assay was performed 1.5 hrs after the final drug treatment as described in the Methods (Fig. 4A).
Plasmodium berghei ANKA (Pb) parasites were maintained by serial passage by intraperitoneal (i.p.) injection in outbred mice. All parasites used were serially passaged less than 5 times. Two days before feeding, female mice were infected i.p. with 200–400 μl whole blood from a Pb-infected mouse with >10% parasitemia, resulting in a high parasitemia in a short, predictable amount of time. On day 2 post infection, the mice were checked for exflagellation. If exflagellation was not observed, it was reassessed on day 3. […] Mice either received two doses 3 hrs apart or a single dose. The two dose treatment was done in triplicate, and the one dose treatment was done once. […] Parasitemia, gametocytemia, and presence of exflagellation were examined as described previously[57]. Mosquitoes were maintained on 5% (w/v) glucose at 19°C and 80% relative humidity. At day 10 post feeding, mosquito midguts were dissected and parasite infection was measured by staining mosquito midguts with 0.2% mercurochrome and counting the numbers of oocysts per midgut. Statistical significance was determined using Student's T-test when comparing two treatment groups and One-Way ANOVA when comparing three groups.

As for `Cc1c2oc3c(C)ccc(C(=O)N[C@@H]4C(=O)N[C@H](C(C)C)C(=O)N5CCC[C@H]5C(=O)N(C)CC(=O)N(C)[C@@H](C(C)C)C(=O)O[C@@H]4C)c3nc-2c(C(=O)N[C@@H]2C(=O)N[C@H](C(C)C)C(=O)N3CCC[C@H]3C(=O)N(C)CC(=O)N(C)[C@@H](C(C)C)C(=O)O[C@@H]2C)c(N)c1=O` [Dactinomycin] (I: T[dV]P[Sar][NMeV] / II: T[dV]P[Sar][NMeV]; ester I:1-I:C, II:1-II:C; linker I:N-II:N via Actinocin(9to1)), the “IC50 in HepG2 cells” value in the series on HepG2 cells [1] is on record as “Inactive”. The pIC50 in [2] (setting [11]) was 7.48; in series [4] (Plasmodium falciparum, 3D7, read-out: Gametocyte IC50), 7.82; in [5] (setting [12]) it was 7.72. Besides, the Emax in the series on HepG2 cells [3] is 1%.

As for `CN(C)C(=S)SSC(=S)N(C)C` [Thiram], in the series on HepG2 cells [1], the “IC50 in HepG2 cells” value is listed as “Inactive”. The negative logarithm of the IC50 (pIC50) was 6.83 in series [2] (setting [11]), 7.08 in series [4] (setting [13]) and 6.83 in series [5] (setting [14]). Besides, the Emax in the series with HepG2 cells [3] came to 23%.

In the case of `C[C@H]1[C@@H](O)O[C@@H]2O[C@@]3(C)CC[C@H]4[C@H](C)CC[C@@H]1[C@@]24OO3` [Artenimol (DHA), Artenimol], the “IC50 in HepG2 cells” value with HepG2 cells [1] is listed as “Inactive”. Besides, the pIC50 in series [2] (setting [15]) was 7.28; in [4] (setting [13]), 7.11; in series [5] (setting [14]), 7.23. In addition, the Emax in the series on HepG2 cells [3] was 20%.

With `CCC(=O)N1CCN(c2ccc(-n3c(=O)ccc4cnc5ccc(-c6cnc7ccccc7c6)cc5c43)cc2C(F)(F)F)CC1` [Torin 1, 1-[4-[4-(1-Oxopropyl)-1-piperazinyl]-3-(trifluoromethyl)phenyl]-9-(3-quinolinyl)-benzo[h]-1,6-naphthyridin-2(1H)-one], the “times less potent than Torin 2 against asexual parasites” value in series [6] was […]. In addition, the negative logarithm of the IC50 (pIC50) in series [6] was 6.67; with mTOR it was […]; in [2] (setting [15]), 5.28; in [4] (Plasmodium falciparum, 3D7, read-out: 3D7-gametocytes IC50, strain profiling, 11 concentrations, 1:3 dilution, three times) it was 5.18; in [4] (Plasmodium falciparum, 3D7, read-out: Gametocyte IC50, P. falciparum 3D7 gametocytes, mean of at least 3 independent experiments), 5.80; in series [5] (setting [14]) it was […]. Further, the “fold less potent than Torin 2 against gametocytes” value in [4] is recorded as […].

As to `Nc1ccc(-c2ccc3ncc4ccc(=O)n(-c5cccc(C(F)(F)F)c5)c4c3c2)cn1` [Torin 2, 9-(6-Amino-3-pyridinyl)-1-[3-(trifluoromethyl)phenyl]-benzo[h]-1,6-naphthyridin-2(1H)-one], the negative-log IC50 (pIC50) in series [6] is 8.56; in the series on mTOR, […]; in series [7] it was 8.85; in [2] (setting [15]), 7.92; in series [8] it was 8.18; in series [10], 8.96. For the same molecule, the pIC50 in the series on HepG2 cells [3] (HepG2, read-out: IC50 in HepG2 cells) was 5.03; in series [4] (setting [13]), 8.10; in series [5] (setting [14]) it was 7.82. The “exflagellation just prior to mosquito feed, drug- vs vehicle-treated mice” value in the series with Plasmodium berghei ANKA (1.5 hrs after drug treatment) was “no difference; also recorded: equivalent to that of the vehicle-treated controls”. Also, the “oocyst production in fed mosquitoes” value in the series on Plasmodium berghei ANKA (single dose 2 mg/kg i.v.) was “significantly reduced”; in the series with Plasmodium berghei ANKA (single dose 4 mg/kg i.v., 4 mg/kg), “almost completely eliminated; also recorded: nearly complete elimination”; in the series on Plasmodium berghei ANKA (two 4 mg/kg doses i.v. 3 hrs apart, feed 1.5 hrs after final treatment) it was “completely block; also recorded: completely prevented”. The oral bioavailability in series [9] is 51%. In addition, in the series with HepG2 cells [3], the Emax is -46%.

In the case of `CN(C)c1ccc2nc3ccc(=[N+](C)C)cc-3sc2c1` [Methylene blue], the “IC50 in HepG2 cells” value with HepG2 cells [1] is given as “Inactive”. Further, the pIC50 in [2] (setting [15]) was 6.28; in series [4] (setting [13]) it was 6.51; in series [5] (setting [14]), 6.03. Besides, in the series with HepG2 cells [3], the Emax was -20%.

In the case of `COc1cccc2c1C(=O)c1c(O)c3c(c(O)c1C2=O)C[C@@](O)(C(=O)CO)C[C@@H]3O[C@H]1C[C@H](N)[C@H](O)[C@H](C)O1` [Adriamycin], the “IC50 in HepG2 cells” value with HepG2 cells [1] is recorded as “Inactive”. Moreover, the figures for the pIC50 in series [2] (setting [15]), in series [4] (setting [13]) and in series [5] (setting [14]) were 5.98, 6.28 and 6.03, respectively. Also, the Emax with HepG2 cells [3] is -35%.

Turning to `CCN(CCO)CCCOc1ccc2c(Nc3cc(CC(=O)Nc4cccc(F)c4)n[nH]3)ncnc2c1` [AZD-1152-HQPA], the “IC50 in HepG2 cells” value in the series with HepG2 cells [1] is on record as “Inactive”. The pIC50 in [2] (setting [15]) is 5.83; in [4] (setting [13]) it was 6.13; in series [5] (setting [14]) it was 5.83. Besides, in the series on HepG2 cells [3], the Emax was 11%.

For the molecule `CC(=O)Nc1cccc(-n2c(=O)n(C3CC3)c(=O)c3c(Nc4ccc(I)cc4F)n(C)c(=O)c(C)c32)c1` [Trametinib], in the series with HepG2 cells [1], the “IC50 in HepG2 cells” value is “Inactive”. For the same molecule, the Emax with HepG2 cells [3] was found to be 14%. In addition, in series [4] (setting [13]), the pIC50 is 6.03.

As for `CO[C@H]1O[C@@H]2O[C@@]3(C)CC[C@H]4[C@H](C)CC[C@@H]([C@H]1C)[C@@]24OO3` [Artemether], the “IC50 in HepG2 cells” value with HepG2 cells [1] is “Inactive”. The pIC50 in series [2] (setting [15]) was 7.28; in [4] (setting [13]), 7.14; in [4] (Plasmodium falciparum, 3D7, strain profiling, 11 concentrations, 1:3 dilution, three times, read-out: 3D7-gametocytes IC50), 7.13; in series [5] (setting [14]), 7.33. Moreover, the Emax with HepG2 cells [3] was 7%.

On to `CCN(CC)CCCC(C)Nc1ccnc2cc(Cl)ccc12` (centres unmarked) [Chloroquine diphosphate], for which the “reduction of potency against Dd2 gametocytes compared to 3D7” value in [2] turned out to be 3.7 fold. The negative logarithm of the IC50 (pIC50) in [2] (Plasmodium falciparum, DD2, read-out: Dd2-gametocytes IC50, strain profiling, 11 concentrations, 1:3 dilution, three times) is 6.03; in series [4] (Plasmodium falciparum, 3D7, read-out: 3D7-gametocytes IC50) it was 6.60; in [5] (Plasmodium falciparum, HB3, read-out: HB3-gametocytes IC50, strain profiling, 11 concentrations, 1:3 dilution, three times) it was 6.03. For the same molecule, in the series with Dd2 asexual parasites, the “fold less potent against Dd2 asexual parasites compared to 3D7” value is on record as 10 fold.

In the case of `C[C@@H]1CC[C@H]2[C@@H](C)C(=O)O[C@@H]3O[C@@]4(C)CC[C@@H]1[C@]32OO4` [Artemisinin], the “IC50 in HepG2 cells” value in the series with HepG2 cells [1] is reported as “Inactive”. Moreover, the values for the pIC50 in series [2] (setting [15]), in [4] (setting [13]) and in [5] (setting [14]) were 7.21, 6.83 and 7.13, respectively. For the same molecule, the Emax with HepG2 cells [3] came out at 18%.

Regarding `O=C1C(=O)c2ncccc2-c2cccnc21` [Phanquinone], the “IC50 in HepG2 cells” value with HepG2 cells [1] was “Inactive”. Moreover, the pIC50 in [2] (setting [15]) is 7.28; in [4] (setting [13]) it was 6.96; in series [5] (setting [14]), 7.43. Also, the Emax in the series on HepG2 cells [3] came to 23%.

`C=CC1CN2CCC1CC2C(O)c1ccnc2ccc(OC)cc12.C=CC1CN2CCC1CC2C(O)c1ccnc2ccc(OC)cc12.O=S(=O)(O)O` (centres unmarked) [Quinine hemisulfate]: in the series on HepG2 cells [1], the “IC50 in HepG2 cells” value is on record as “Inactive”. Further, the “% Max response” value with HepG2 cells [1] (HepG2 cells) was 2%. Further, the negative logarithm of the IC50 (pIC50) in series [2] (strain profiling, 11 concentrations, 1:3 dilution, three times, read-out: Dd2-gametocytes IC50) was 7.08; in [4] (P. falciparum 3D7 gametocytes, mean of at least 3 independent experiments, read-out: Gametocyte IC50), 6.46; in series [5] (strain profiling, 11 concentrations, 1:3 dilution, three times, read-out: HB3-gametocytes IC50) it was 6.63.

On to `S=C(SSC(=S)N1CCCCC1)N1CCCCC1` [Dicyclopentamethylenethiuram disulfide], for which the “IC50 in HepG2 cells” value in the series on HepG2 cells [1] is “Inactive”. Further, the pIC50 is 6.13 in [2] (setting [11]); 6.56 in [4] (Plasmodium falciparum, P. falciparum 3D7 gametocytes, mean of at least 3 independent experiments, read-out: Gametocyte IC50); 6.13 in [5] (setting [12]). Besides, in the series with HepG2 cells [3], the Emax was determined as 0%.

Regarding `C[C@H]1[C@H](OC(=O)CCC(=O)O)O[C@@H]2O[C@@]3(C)CC[C@H]4[C@H](C)CC[C@@H]1[C@@]24OO3` [Artesunate], in the series on HepG2 cells [1], the “IC50 in HepG2 cells” value was “Inactive”. The pIC50 in [2] (setting [15]) is 7.52; in series [4] (setting [13]) it was 7.23; in [5] (setting [14]) it was 7.33. In the series on HepG2 cells [3], the Emax turned out to be 18%.

What is called pIC50 is the IC50 on a negative log10 scale, so that one unit is a factor of ten.

The values above are taken from paper PMC3894558, “Chemical signatures and new drug targets for gametocytocidal drug development” (Scientific Reports, 2014).
